From patent US20230150974A1 (Foghorn Therapeutics Inc., priority 2020, published 2023)

Columns and labels:
HiBiT-BRM = target: T1, HiBiT-BRM (Homo sapiens, UniProt P51531); experiment: HiBiT-BRM cell-based degradation assay (Nano-Glo HiBiT Lytic Detection); conditions: HeLa cells expressing HiBiT-BRM, 24 h; for DC50: read-out: BRM HiBit Degradation IC50
T1 construct: expressed in transfected cells
Procedure, shortened: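 Luminescence from HiBiT–LgBiT complementation in lysates of a stable HiBiT-BRM HeLa line measured after 24 h compound exposure. Degradation expressed as percent relative to DMSO-treated cells and cells given 2 μM of a known BRM/BRG1 degrader.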

HiBit-BRG1 = target: T2, HiBit-BRG1 (Homo sapiens, UniProt P51532); experiment: HiBit-BRG1 cell-based degradation assay (Nano-Glo HiBiT Lytic Detection); conditions: HeLa cells expressing HiBit-BRG1 and LgBit, 24 h; for DC50: read-out: BRG1 HiBit Degradation IC50; for Dmax: read-out: BRG1 HiBit Degradation Maximum (%)
T2 construct: expressed in transfected cells
T2 sequence (P51532 whole entry): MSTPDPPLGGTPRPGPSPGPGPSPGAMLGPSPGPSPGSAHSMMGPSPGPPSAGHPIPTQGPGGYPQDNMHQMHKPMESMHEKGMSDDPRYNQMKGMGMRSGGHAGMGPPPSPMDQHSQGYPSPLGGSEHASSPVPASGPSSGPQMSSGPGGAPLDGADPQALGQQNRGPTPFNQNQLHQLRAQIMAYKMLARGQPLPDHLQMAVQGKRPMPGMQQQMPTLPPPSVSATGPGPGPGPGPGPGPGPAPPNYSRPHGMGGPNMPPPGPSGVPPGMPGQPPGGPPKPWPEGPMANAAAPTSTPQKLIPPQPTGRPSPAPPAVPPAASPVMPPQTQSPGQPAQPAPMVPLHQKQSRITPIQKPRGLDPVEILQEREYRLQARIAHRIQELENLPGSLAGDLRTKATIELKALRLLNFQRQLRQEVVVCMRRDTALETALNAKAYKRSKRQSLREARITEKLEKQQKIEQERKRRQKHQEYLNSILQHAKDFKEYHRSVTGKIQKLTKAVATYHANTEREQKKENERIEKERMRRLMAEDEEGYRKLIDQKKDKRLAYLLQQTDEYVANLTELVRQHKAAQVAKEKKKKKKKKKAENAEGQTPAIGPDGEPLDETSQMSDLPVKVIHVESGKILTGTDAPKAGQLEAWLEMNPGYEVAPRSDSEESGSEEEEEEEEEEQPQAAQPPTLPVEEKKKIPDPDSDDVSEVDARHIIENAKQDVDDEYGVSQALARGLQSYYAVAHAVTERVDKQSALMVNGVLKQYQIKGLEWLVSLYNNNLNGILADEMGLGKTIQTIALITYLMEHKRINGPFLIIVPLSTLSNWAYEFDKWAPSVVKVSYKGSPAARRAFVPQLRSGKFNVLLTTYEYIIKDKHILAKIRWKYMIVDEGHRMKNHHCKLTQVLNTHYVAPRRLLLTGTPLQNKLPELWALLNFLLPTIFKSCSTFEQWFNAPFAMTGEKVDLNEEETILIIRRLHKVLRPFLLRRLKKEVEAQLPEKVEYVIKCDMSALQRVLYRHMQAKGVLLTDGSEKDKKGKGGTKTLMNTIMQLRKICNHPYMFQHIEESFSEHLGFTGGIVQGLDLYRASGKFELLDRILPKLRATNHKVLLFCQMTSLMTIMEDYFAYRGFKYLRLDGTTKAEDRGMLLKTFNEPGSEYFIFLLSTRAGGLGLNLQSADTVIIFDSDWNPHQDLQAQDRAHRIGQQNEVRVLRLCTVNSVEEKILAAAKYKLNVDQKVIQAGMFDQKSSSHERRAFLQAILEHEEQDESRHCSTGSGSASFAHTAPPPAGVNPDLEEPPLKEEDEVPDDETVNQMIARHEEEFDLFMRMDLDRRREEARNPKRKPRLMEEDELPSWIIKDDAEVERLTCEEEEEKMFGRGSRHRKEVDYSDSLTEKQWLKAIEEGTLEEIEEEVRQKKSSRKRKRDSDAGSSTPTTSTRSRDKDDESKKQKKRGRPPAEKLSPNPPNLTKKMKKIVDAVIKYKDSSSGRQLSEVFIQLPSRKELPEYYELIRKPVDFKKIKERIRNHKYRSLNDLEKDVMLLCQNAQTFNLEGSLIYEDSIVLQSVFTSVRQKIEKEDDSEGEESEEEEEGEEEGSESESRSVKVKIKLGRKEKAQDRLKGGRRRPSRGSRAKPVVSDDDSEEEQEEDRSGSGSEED
Procedure, shortened: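 HeLa cells stably expressing HiBiT-BRG1 plus LgBit, 5000/well, treated 24 h, then lysed with Nano-Glo HiBiT lytic reagent and luminescence read. % degradation normalised between DMSO (high control) and 2 μM reference BRM/BRG1 degrader (low control).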

T1 sequence (P51531 whole entry): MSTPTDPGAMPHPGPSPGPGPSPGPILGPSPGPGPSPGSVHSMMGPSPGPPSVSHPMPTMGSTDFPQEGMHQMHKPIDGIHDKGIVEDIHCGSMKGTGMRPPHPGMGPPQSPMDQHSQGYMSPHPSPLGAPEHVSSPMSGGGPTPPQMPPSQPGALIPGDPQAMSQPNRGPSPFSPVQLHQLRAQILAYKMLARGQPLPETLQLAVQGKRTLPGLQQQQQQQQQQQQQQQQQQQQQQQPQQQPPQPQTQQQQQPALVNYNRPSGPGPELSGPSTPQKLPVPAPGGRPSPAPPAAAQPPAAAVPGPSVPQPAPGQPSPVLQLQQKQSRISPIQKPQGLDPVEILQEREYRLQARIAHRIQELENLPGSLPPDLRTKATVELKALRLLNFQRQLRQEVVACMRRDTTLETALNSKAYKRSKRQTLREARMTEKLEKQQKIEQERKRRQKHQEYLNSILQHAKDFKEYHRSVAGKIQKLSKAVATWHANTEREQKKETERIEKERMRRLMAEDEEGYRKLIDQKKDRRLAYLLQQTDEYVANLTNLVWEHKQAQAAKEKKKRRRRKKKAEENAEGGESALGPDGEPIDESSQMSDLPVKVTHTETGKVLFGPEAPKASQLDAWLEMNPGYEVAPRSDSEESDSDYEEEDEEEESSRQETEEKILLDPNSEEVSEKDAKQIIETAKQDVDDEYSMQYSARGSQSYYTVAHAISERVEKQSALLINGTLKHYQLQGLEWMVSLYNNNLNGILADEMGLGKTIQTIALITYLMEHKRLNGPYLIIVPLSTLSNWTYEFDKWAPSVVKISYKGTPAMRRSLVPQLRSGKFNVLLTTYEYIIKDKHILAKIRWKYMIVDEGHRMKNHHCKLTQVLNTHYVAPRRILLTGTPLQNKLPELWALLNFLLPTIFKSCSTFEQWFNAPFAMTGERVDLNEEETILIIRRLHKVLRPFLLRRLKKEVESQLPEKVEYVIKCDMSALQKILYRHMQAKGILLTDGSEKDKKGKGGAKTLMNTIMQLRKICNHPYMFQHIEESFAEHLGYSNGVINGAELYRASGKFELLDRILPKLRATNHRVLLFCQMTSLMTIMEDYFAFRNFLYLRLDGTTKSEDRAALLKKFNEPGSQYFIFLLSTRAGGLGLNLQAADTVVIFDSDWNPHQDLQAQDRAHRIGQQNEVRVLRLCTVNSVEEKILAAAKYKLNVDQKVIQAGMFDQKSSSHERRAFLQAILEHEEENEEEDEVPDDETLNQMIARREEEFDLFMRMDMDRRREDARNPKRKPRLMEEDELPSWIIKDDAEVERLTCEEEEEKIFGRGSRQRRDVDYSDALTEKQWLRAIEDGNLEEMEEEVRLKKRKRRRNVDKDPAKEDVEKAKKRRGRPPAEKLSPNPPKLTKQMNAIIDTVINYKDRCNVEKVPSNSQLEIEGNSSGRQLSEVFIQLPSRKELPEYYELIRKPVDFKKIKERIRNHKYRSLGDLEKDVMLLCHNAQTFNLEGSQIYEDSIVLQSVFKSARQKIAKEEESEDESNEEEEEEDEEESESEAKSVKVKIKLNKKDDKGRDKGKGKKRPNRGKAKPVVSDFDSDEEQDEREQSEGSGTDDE

DC50 (HiBiT-BRM) [nM]	DC50 (HiBit-BRG1) [nM]	Dmax (HiBit-BRG1) [%]	Compound	BRM HiBit Degradation Maximum (%) (HiBiT-BRM)
> 1000	> 1000	< 50	Nc1nnc(-c2ccccc2O)cc1OCCc1ccc(CNC(=O)CCCOc2cccc3c2C(=O)N(C2CCC(=O)NC2=O)C3=O)cc1 (stereo not shown) [Compound 65, N-[[4-(2-[[3-amino-6-(2-hydroxyphenyl)pyridazin-4-yl]oxy]ethyl)phenyl]methyl]-4-[[2-(2,6-dioxopiperidin-3-yl)-1,3-dioxoisoindol-4-yl]oxy]butanamide]	C (“C” indicates maximum degradation <50%)
> 1000	> 1000	< 50	Nc1nnc(-c2ccccc2O)cc1OCCc1ccc(CNC(=O)CCCCCCCCCCNc2ccc3c(c2)C(=O)N(C2CCC(=O)NC2=O)C3=O)cc1 (stereo not shown) [Compound 66]	C (“C” indicates maximum degradation <50%)
> 100	> 1000	< 50	Nc1nnc(-c2ccccc2O)cc1OCCc1ccc(CNC(=O)CCCCOc2cccc3c2C(=O)N(C2CCC(=O)NC2=O)C3=O)cc1 (stereo not shown) [Compound 67, N-[[4-(2-[[3-amino-6-(2-hydroxyphenyl)pyridazin-4-yl]oxy]ethyl)phenyl]methyl]-5-[[2-(2,6-dioxopiperidin-3-yl)-1,3-dioxoisoindol-4-yl]oxy]pentanamide]	A (“A” indicates maximum degradation ≥75%)
> 1000	> 1000	< 50	Nc1nnc(-c2ccccc2O)cc1OCCc1ccc(CNC(=O)CCCCCCCOc2cccc3c2C(=O)N(C2CCC(=O)NC2=O)C3=O)cc1 (stereo not shown) [Compound 69, N-[[4-(2-[[3-amino-6-(2-hydroxyphenyl)pyridazin-4-yl]oxy]ethyl)phenyl]methyl]-8-[[2-(2,6-dioxopiperidin-3-yl)-1,3-dioxoisoindol-4-yl]oxy]octanamide]	C (“C” indicates maximum degradation <50%)
> 1000	> 1000	< 50	Nc1nnc(-c2ccccc2O)cc1OCCc1ccc(CNC(=O)CCOCCOCCNc2ccc3c(c2)C(=O)N(C2CCC(=O)NC2=O)C3=O)cc1 (stereo not shown) [Compound 70, N-[[4-(2-[[3-amino-6-(2-hydroxyphenyl)pyridazin-4-yl]oxy]ethyl)phenyl]methyl]-3-[2-(2-[[2-(2,6-dioxopiperidin-3-yl)-1,3-dioxoisoindol-5-yl]amino]ethoxy)ethoxy]propanamide]	C (“C” indicates maximum degradation <50%)
> 1000	> 1000	< 50	Nc1nnc(-c2ccccc2O)cc1OCCc1ccc(CNC(=O)CCCCCCCCNc2cccc3c2C(=O)N(C2CCC(=O)NC2=O)C3=O)cc1 (stereo not shown) [Compound 71, N-[[4-(2-[[3-amino-6-(2-hydroxyphenyl)pyridazin-4-yl]oxy]ethyl)phenyl]methyl]-9-[[2-(2,6-dioxopiperidin-3-yl)-1,3-dioxoisoindol-4-yl]amino]nonanamide]	C (“C” indicates maximum degradation <50%)
> 1000	> 1000	< 50	Nc1nnc(-c2ccccc2O)cc1OCCc1ccc(CNC(=O)CCCCCCCCCCNc2cccc3c2C(=O)N(C2CCC(=O)NC2=O)C3=O)cc1 (stereo not shown) [Compound 72]	C (“C” indicates maximum degradation <50%)

Further lines, the compound ahead of its results:

Compound	DC50 (HiBiT-BRM) [nM]	DC50 (HiBit-BRG1) [nM]	Dmax (HiBit-BRG1) [%]	BRM HiBit Degradation Maximum (%) (HiBiT-BRM)
Nc1nnc(-c2ccccc2O)cc1OCCc1ccc(C(=O)NCCCCCNc2cccc3c2C(=O)N(C2CCC(=O)NC2=O)C3=O)cc1 (stereo not shown) [Compound 50, 4-(2-((3-amino-6-(2-hydroxyphenyl)pyridazin-4-yl)oxy)ethyl)-N-(5-((2-(2,6-dioxopiperidin-3-yl)-1,3-dioxoisoindolin-4-yl)amino)pentyl)benzamide]	> 1000	> 1000	< 50	C (“C” indicates maximum degradation <50%)
Nc1nnc(-c2ccccc2O)cc1OCCc1ccc(C(=O)NCCCCCNc2ccc3c(c2)C(=O)N(C2CCC(=O)NC2=O)C3=O)cc1 (stereo not shown) [Compound 51, 4-(2-[[3-amino-6-(2-hydroxyphenyl)pyridazin-4-yl]oxy]ethyl)-N-(5-[[2-(2,6-dioxopiperidin-3-yl)-1,3-dioxoisoindol-5-yl]amino]pentyl)benzamide]	> 1000	> 1000	< 50	C (“C” indicates maximum degradation <50%)
Cc1nc2cccc(NCCCCCCNC(=O)c3ccc(CCOc4cc(-c5ccccc5O)nnc4N)cc3)c2c(=O)n1C1CCC(=O)NC1=O (stereo not shown) [Compound 52, 4-(2-[[3-amino-6-(2-hydroxyphenyl)pyridazin-4-yl]oxy]ethyl)-N-(6-[[3-(2,6-dioxopiperidin-3-yl)-2-methyl-4-oxoquinazolin-5-yl]amino]hexyl)benzamide]	> 1000	> 1000	< 50	C (“C” indicates maximum degradation <50%)
Nc1nnc(-c2ccccc2O)cc1OCCc1ccc(C(=O)NCCOCCOCCNc2cccc3c2CN(C2CCC(=O)NC2=O)C3=O)cc1 (stereo not shown) [Compound 54, 4-(2-[[3-amino-6-(2-hydroxyphenyl)pyridazin-4-yl]oxy]ethyl)-N-[2-[2-(2-[[2-(2,6-dioxopiperidin-3-yl)-1-oxo-3H-isoindol-4-yl]amino]ethoxy)ethoxy]ethyl]benzamide]	> 1000	> 1000	< 50	C (“C” indicates maximum degradation <50%)
Nc1nnc(-c2ccccc2O)cc1OCCc1ccc(C(=O)NCCS(=O)(=O)CCNc2cccc3c2C(=O)N(C2CCC(=O)NC2=O)C3=O)cc1 (stereo not shown) [Compound 55, 4-(2-[[3-amino-6-(2-hydroxyphenyl)pyridazin-4-yl]oxy]ethyl)-N-[2-(2-[[2-(2,6-dioxopiperidin-3-yl)-1,3-dioxoisoindol-4-yl]amino]ethanesulfonyl)ethyl]benzamide]	> 1000	> 1000	< 50	C (“C” indicates maximum degradation <50%)
Nc1nnc(-c2ccccc2O)cc1OCCc1ccc(C(=O)NCCCCCCCCNc2cccc3c2CN(C2CCC(=O)NC2=O)C3=O)cc1 (stereo not shown) [Compound 56]	> 1000	> 1000	< 50	C (“C” indicates maximum degradation <50%)
Cc1ncsc1-c1ccc(CNC(=O)[C@@H]2C[C@@H](O)CN2C(=O)[C@@H](NC(=O)CCCCCCCNC(=O)c2ccc(CCOc3cc(-c4ccccc4O)nnc3N)cc2)C(C)(C)C)cc1 [Compound 57, (2S,4R)-1-[(2S)-2-(8-[[4-(2-[[3-amino-6-(2-hydroxyphenyl)pyridazin-4-yl]oxy]ethyl)phenyl]formamido]octanamido)-3,3-dimethylbutanoyl]-4-hydroxy-N-[[4-(4-methyl-1,3-thiazol-5-yl)phenyl]methyl]pyrrolidine-2-carboxamide]	> 100	> 1000	< 50	B (“B” indicates maximum degradation ≥50%)
CN(CCNC(=O)COc1cccc2c1C(=O)N(C1CCC(=O)NC1=O)C2=O)CCNC(=O)c1ccc(CCOc2cc(-c3ccccc3O)nnc2N)cc1 (stereo not shown) [Compound 58, N-[2-[(2-[[4-(2-[[3-amino-6-(2-hydroxyphenyl)pyridazin-4-yl]oxy]ethyl)phenyl]formamido]ethyl)(methyl)amino]ethyl]-2-[[2-(2,6-dioxopiperidin-3-yl)-1,3-dioxoisoindol-4-yl]oxy]acetamide]	> 1000	> 1000	< 50	C (“C” indicates maximum degradation <50%)
CN(CCNC(=O)c1ccc(CCOc2cc(-c3ccccc3O)nnc2N)cc1)CCNc1cccc2c1C(=O)N(C1CCC(=O)NC1=O)C2=O (stereo not shown) [Compound 61, 4-(2-[[3-amino-6-(2-hydroxyphenyl)pyridazin-4-yl]oxy]ethyl)-N-[2-[(2-[[2-(2,6-dioxopiperidin-3-yl)-1,3-dioxoisoindol-4-yl]amino]ethyl)(methyl)amino]ethyl]benzamide]	> 100	> 1000	< 50	B (“B” indicates maximum degradation ≥50%)
Nc1nnc(-c2ccccc2O)cc1OCCc1ccc(CNC(=O)COc2cccc3c2C(=O)N(C2CCC(=O)NC2=O)C3=O)cc1 (stereo not shown) [Compound 62, N-[[4-(2-[[3-amino-6-(2-hydroxyphenyl)pyridazin-4-yl]oxy]ethyl)phenyl]methyl]-2-[[2-(2,6-dioxopiperidin-3-yl)-1,3-dioxoisoindol-4-yl]oxy]acetamide]	> 1000	> 100	> 50	C (“C” indicates maximum degradation <50%)
Nc1nnc(-c2ccccc2O)cc1OCCc1ccc(CNC(=O)CCCCCOc2cccc3c2C(=O)N(C2CCC(=O)NC2=O)C3=O)cc1 (stereo not shown) [Compound 63, N-[[4-(2-[[3-amino-6-(2-hydroxyphenyl)pyridazin-4-yl]oxy]ethyl)phenyl]methyl]-6-[[2-(2,6-dioxopiperidin-3-yl)-1,3-dioxoisoindol-4-yl]oxy]hexanamide]	> 100	> 1000	< 50	B (“B” indicates maximum degradation ≥50%)
Nc1nnc(-c2ccccc2O)cc1OCCc1ccc(C(=O)NCCCCCCCCNc2ccc3c(c2)C(=O)N(C2CCC(=O)NC2=O)C3=O)cc1 (stereo not shown) [Compound 64, 4-(2-[[3-amino-6-(2-hydroxyphenyl)pyridazin-4-yl]oxy]ethyl)-N-(8-[[2-(2,6-dioxopiperidin-3-yl)-1,3-dioxoisoindol-5-yl]amino]octyl)benzamide]	> 1000	> 1000	< 50	C (“C” indicates maximum degradation <50%)
